Reference: US6297032A, “Recombinant cephalosporin C amidohydrolase in cephalosporin biosynthesis” (Glaxo Group Limited, priority 1994, dated 2001)

Legend:
[1] = system: cephalosporin C amidohydrolase; assay: Enzyme activity assay, B965 whole cells (7ACA production); type: biochemical, Pseudomonas vesicularis B965
Experimental: (§1) Substrate buffer consists of 50 mM sodium phosphate buffer pH 7.0 containing 13.5 mg/ml cloxacillin and GL-7CA (3 mg/ml) or cephalosporin C (10 mg/ml). Cell suspensions or semi-purifed enzyme samples were incubated in substrate buffer for up to 24 hours at 37° C. At a suitable time a 100 μl aliquot of fluram reagent was then added, mixed and the sample incubated at room temperture for 1 hour. Fluram reagent consists of fluroescamine (Sigma Chemical Co) at 1 mg/ml in dry acetone. The presence of 7ACA in the reaction mix was detected after derivatisation of the free primary amine group by using fluorescence spectroscopy at an excitation wave length of 378 nm and emission detection at 498 nm in a flow injection assay system with 10% acetone in water as carrier fluid.
(§2) The enzyme reaction mix was derivatised as above a 20 μl sample applied in a mobile phase consisting of 35% acetonitrile, 0.1% trifluoroacetic acid in HPLC-grade water onto a 15 cm Hypersil ODS 5μ column at 32° C. with a flow rte of 1.5 ml/min. Detection by fluorescence spectroscopy was as above. In this system authentic 7ACA standard has a retention time of 6.7 minutes, with a minor degradation peak at
In typical experiments using these conditions B965 cells sufficient to fill a 10 μl inoculating loop produced 320 μg/ml 7ACA in 18 hours incubation GL-7ACA as substrate. […]

[2] = system: cephalosporin C amidohydrolase; assay: Enzyme activity assay, partially purified amidohydrolase recovered from B965; type: biochemical, Pseudomonas vesicularis B965
Experimental: as §1, with “Cell” for “Substrate buffer consists of 50 mM sodium phosphate buffer pH 7.0 containing 13.5 mg/ml cloxacillin and GL-7CA (3 mg/ml) or cephalosporin C (10 mg/ml). Cell”
B965 cells were cultured on TSB agar plates essentially by the method of preparation 1(b). The cells were harvested into enzyme buffer, washed and finally resuspended in 10 ml chilled enzyme buffer. Enzyme buffer is 100 mM sodium phosphate buffer (pH 7.0) containing 1 mM DTT and 1 mM benzamidine. The cells were lysed by sonication using a 650W output sonicator (model W-380, Heat System Ultrasonics Inc, 1938 New Highway, Farmingdale, N.Y. 11735, USA) on power settings 2-3, 50% cycle, for 12 , minutes . The extract was clarifed by centrifugation at 18,000 g for 15 minutes at 4° C. The supernatant was recovered, adjusted to 10 ml volume in enzyme buffer, then solid ammonium sulphate was added slowly with gentle mixing at 4° C. to 30% saturation. […]

[3] = system: cephalosporin C amidohydrolase; assay: Cephalosporin C amidohydrolase enzyme properties, kinetic; type: biochemical, Pseudomonas vesicularis B965
Experimental: as §1
Further purification of the amidohydrolase was undertaken using an FPLC system (Pharmacia LKB Biotechnology, S-751 82 Uppsala, Sweden) in order to define the properties of the enzyme.
Material recovered from the 30-60% saturation ammonium sulphate precipitate was resuspended in MOPS buffer (10 mM MOPS pH8.0, 1 mM benzamidine). The solution was clarified by brief centrifugation followed by filration through a 0.2 micron filter. A 5 ml aliquot of enzyme mixture was applied to an HR5/5 MonoQ column pre-equilibrated with MOPS buffer. Amidohydrolase activity was recovered in the eluate between 2-4 after loading. This fraction was adjusted to 30% saturation in ammonium sulphate and loaded to an HR10/30 phenylsuperose column. Elution of protein was achieved using a salt gradient regime varying from 30%-0% saturation in ammonium sulphate with a running buffer consisting of 100 mM sodium phosphate pH7.0, 1 mM DTT. Amidohydrolase activity was recovered at between 18.5%-15.0% saturation of ammonium sulphate under these conditions.

[4] = system: cephalosporin C amidohydrolase; assay: Substrate comparison, assay response by HPLC, enzyme from NM522/pVS44 cells; type: biochemical, Pseudomonas vesicularis
Experimental: as §2
(a) Assay response is given as product yield standardised to the 7ACA produced from GL-7ACA under equivalen reaction conditions. For this comparison it is assumed that products have molar extinction coefficients equivalent to 7ACA, such that the response was calculated directly from product peak area on HPLC. The standard reaction used 100 μl enzyme prepared by the procedure of preparation of 2(d) from NM522/p/VS44 cells, with 10 mg/ml substrate in overnight reaction at 27° C.
(b) Assay response obtained using 10 μl of above enzyme extract, with 3 mg/ml substrate in 2 hour reaction at 27° C. The actual response was then extrapolated to equivalent conditions to those used with the more slowly hydrolysed substrates.

[5] = system: cephalosporin C amidohydrolase; assay: Enzyme activity assay, E. coli B1113 extract after DE52 cellulose; type: biochemical, Pseudomonas vesicularis; details: extract 50
Experimental: as §1
E. coli B1113 was grown on TSB agar plates following the method of preparation 1(b). The confluent cell growth was processed for amidohydrolase recovery essentially following the procedure of preparation 1(d) to the cell-free extract stage.
Amidohydrolase activity was further purified by application of the cell-free extract to a DE52 cellulose column (Whatman Ltd, Maidstone, Kent ME14 2ME). The majority of proteins in the extract bind to the matrix and amidohydrolase activity is not retained. […]

[6] = system: cephalosporin C amidohydrolase; assay: Enzyme activity assay, NM522/pVS44 extract after DE52 cellulose; type: biochemical, Pseudomonas vesicularis; details: 10 μl extract; 50 mg/ml cephalosporin C; 3 hour incubation at 27° C.
Experimental: as §1
Cephalosporin C amidohydrolase enzyme activity was recovered from NM522/pVS44 cells using procedures of preparation 1(b) and 1(c) to the cell free extract stage followed by chromatography on DE52 cellulose as described above. In a typical assay using the method of preparation 1(c), a 10 μl extract produced 12 μg/ml 7ACA from 50 mg/ml cephalosporin C in a 3 hour incubation at 27° C. This represents approximately 30-fold improvement over the level of activity obtained using B1113 strain extract aat an equivalent stage of purification.

[7] = system: Immobilised amidohydrolase; assay: Immobilised amidohydrolase activity (pH stat, DMAB assay); type: biochemical, Pseudomonas vesicularis; details: for Activity μmole 7ACA/min/g dry weight immobilised enzyme / Activity μmole/min/g wet weight immobilised enzyme: 50 mg/ml substrate in water, 25° C., pH 8.0
Experimental: E. coli strain NM522/pVS 44 was grown on TSB medium supplemented with 10 μg/ml choramphenicol and solidified with 1.5% w/v agar. Growth was for 2-4 days at 27.5° C. Cell paste was recovered by scraping from the agar surface, resuspended and washed in lysis buff (10 mM MOPS pH 8.0; 1 mM DTT; 1 mM benzamidine). About 65 g cell paste was lysed in 350 ml ice cold buffer by sonication (650W output, power setting 4, 5 passes through a continuous flow head at 35 ml/min flow, sample chilled on ice). The lysate was clarified by centrifugation (15,000 rpm, 30 min) to yield 3120 mg soluble protein. This material was passed over a 300 ml column of pre-equlibrated DE52 cellulose. Fractions eluting between 100 ml-500 ml after loading contained amidohydrolase activity in a total of 398 mg protein. The protein was concentrated using a centrifugal membrance device (Centriprep 30 concentrator, Amicon).
The concentrated extract (300 mg protein, 12.54 ml) was adjusted to 100 mM phosphate buffer pH 8.0:1 mM DTT; 1 mM benzamidine, and mixed with 3.0 g (dry weight) oxirane-linked polyacrylic matrix (Eupergit C: Rohm Pharma GmbH, D-6100 Darmstadt Germany). Immobilisation, monitored by protein removal from the liquid phase, was complete by 116 hours. About 120 mg protein became covalently linked to the support. Excess protein was removed by washing in the phosphate buffer.
Immobilised amidohydrolase activity was monitored by allowing the enzyme catalysed reaction to occur using an automated control system set to detect and maintain the reaction pH at a set point (a pH stat system). A pH monitor was set such that a fall in pH from the set point triggered a peristaltic pump to allow regulated dosing of alkali titrant.
A reaction volume of 50 ml contained 50 mg/ml substrate (GL-7ACA or Ceph C) in water maintained at 25° C. The reaction mix was adjusted to pH 8.0 using 2M NaOH as titrant before addition of about 3 g dry weight (12 g wet weight) immobilised enzyme to initate the reaction. The suspension was stirred using an overhead paddle type stirrer. Reaction progress was monitored by titrant addition rate and sampling at intervals. The samples were assayed for 7ACA by the DMAB method as in preparation 1(a). By this method the following activities were measured. (Table 8.)

[8] = system: gram-negative microorganisms; details: against gram-negative microorganisms; cited from earlier work
[9] = 100 μl enzyme from NM522/pVS44 cells, 10 mg/ml substrate, overnight reaction at 27° C., standardised to 7ACA produced from GL-7ACA

CC(=O)OCC1=C(C(=O)O)N2C(=O)[C@@H](NC(=O)CCC[C@@H](N)C(=O)O)[C@H]2SC1 [Ceph C, cephalosporin C]
7 ACA Produced ([1]; double the volume of B965 cells, cephalosporin C as substrate, overnight incubation): 5 µg/mL | 7 ACA Produced ([2]; extract 80 μl, Ceph C 50 mg/ml, 8 hr): 14.5 µg/mL | Specific activity maximum ([3]; using Ceph C substrate): 0.141 μmol 7ACA/min/mg enzyme | Assay response (% rate of 7ACA) [4, 9]: 8.0% | 7 ACA Produced ([5]; Ceph C 10 mg/ml, 4 hr): 4.5 µg/mL | 7 ACA Produced [6]: 12 µg/mL | Activity μmole 7ACA/min/g dry weight immobilised enzyme [7]: 0.95 μmole 7ACA/min/g dry weight im | Activity μmole/min/g wet weight immobilised enzyme [7]: 0.24 μmole/min/g wet weight immobil | maximum conversion ([7]; cephalosporin C substrate, 22 hours, immobilised enzyme): 1.7% | activity as an antibiotic [8]: some activity

CC(=O)OCC1=C(C(=O)O)N2C(=O)[C@@H](NC(=O)CCCC(=O)O)[C@H]2SC1 [GL-7ACA, 7-β-(4-carboxybutanamido)-cephalosporanic acid]
7 ACA Produced ([1]; B965 cells filling a 10 μl inoculating loop, GL-7ACA as substrate, 18 hours incubation): 320 µg/mL | 7 ACA Produced ([2]; extract 10 μl, GL-7ACA 2 mg/ml, 4 hr): 22 µg/mL | Km ([3]; GL-7ACA substrate at 1.2-7.2 mM): 2000 to 4000 µM | Assay response (% rate of 7ACA) ([4]; 10 μl enzyme extract, 3 mg/ml substrate, 2 hour reaction at 27° C., extrapolated to equivalent conditions (reference = 100)): 100% | 7 ACA Produced ([5]; GL-7ACA 3 mg/ml, 3 hr): 102 µg/mL | Activity μmole 7ACA/min/g dry weight immobilised enzyme [7]: 4.7 μmole 7ACA/min/g dry weight im | Activity μmole/min/g wet weight immobilised enzyme [7]: 1.2 μmole/min/g wet weight immobil | conversion achieved ([7]; GL-7ACA as substrate, immobilised enzyme): 9.0%

N.N.O=S(=O)(O)O [ammonium sulphate]
Inhibitors (inhibitory concentration) [3]: > 6 % w/v

CC(=O)OCC1=C(C(=O)O)N2C(=O)[C@@H](NC(=O)CCCC(NC(=O)c3ccccc3)C(=O)O)[C@H]2SC1 (some centres unmarked) [benzoylcephalosporin C]
Assay response (% rate of 7ACA) [4, 9]: 2.8%

O=C(CCCC(NC(=O)c1ccccc1)C(=O)O)N[C@@H]1C(=O)N2C(C(=O)[O-])=C(C[n+]3ccccc3)CS[C@H]12 (some centres unmarked) [benzoylcephalosporin-3-pyridiniummethyl]
Assay response (% rate of 7ACA) [4, 9]: 3.5%

N[C@H](CCCC(=O)N[C@@H]1C(=O)N2C(C(=O)O)=C(CO)CS[C@H]12)C(=O)O [deacetylcephalosporin C]
Assay response (% rate of 7ACA) [4, 9]: 9.8%

CC(=O)OCC1=C(C(=O)O)N2C(=O)[C@@H](NC(=O)CCC(=O)O)[C@H]2SC1 [succinyl-7ACA]
Assay response (% rate of 7ACA) [4, 9]: 0.8%
